Test results reported in patent US6747061B2, “N-substituted dithiocarbamates for the treatment of biological disorders” (AtheroGenics, Inc., priority 2000, dated 2004).
Like-named read-outs stand apart in the source and are kept apart here.

What was measured:
[1] = tested on: SNU-C5 colorectal carcinoma cells; assay: Anti-proliferative effect on SNU-C5 cells (CellTiter96); format: cell-based; conditions: read-out: proliferation, percent of control; for activity at 1 µM: NDE 1 μM; for activity at 10 µM: NDE 10 μM; for activity at 100 µM: NDE 100 μM
Method: (§1) All primary cells and cell lines were commercially available. The transformed cell lines were grown in Dulbecco's Modified Eagle Media supplemented with 2 mM L-glutamine, 50 I.U. penicillin, 50 μg/ml streptomycin, nonessential amino acids and 10% heat-inactivated fetal bovine serum. HASM, HAEC and NHBE cells were cultured exactly as described by the commercial provider (Clonetics, San Diego, Calif.). All cell lines were grown at 37° C. in 5% CO2, with the media being changed every 48 hours.
(§2) For the experimental assays, cells were plated in 96-well plates and grown until ˜35% confluency was achieved. For the transformed cell lines, cells were plated at low density and grown for 72 hours prior to being stimulated, whereas the non-transformed cells were plated at a higher density and grown for 24 hours prior to being stimulated.
(§3) Cells were treated with dithiocarbamate (0.1-100 μM)±5FU (0.01-10 μM) and retreated after 48 hours when media was changed. Cell growth was assessed using the CellTiter96® assay system from Promega (Madison, Wis.). Each experimental condition was performed in triplicate or quadruplicate, with the number of experiments for each cell line being three.
(§4) Statistical significance was assessed using an ANOVA with the appropriate post-hoc analysis as well as Students t-tests. *=p<0.05 when compared to control-treated (DMSO) cells. #=p<0.05 when compared to 5FU-treated cells.

VCAM-1 = VCAM-1 assay: enzyme immunoassay of TNF-α induced VCAM-1 expression in endothelial cells; format: cell-based, Human; conditions: Homo sapiens, Endothelial cell; HAEC, TNF-α 1 ng/ml, approximately 16 hours; read-out: VCAM-1 IC50
Method: The VCAM-1 assay is an enzyme immunoassay to detect tumor necrosis factor alpha (TNF-α) induced Vascular Adhesion Molecule (VCAM-1) expression in endothelial cells.
Human endothelial cells (HAEC) were purchased from Clonetics and maintained in EGM media (Clonetics) supplemented with 5% fetal bovine serum (FBS). In a typical experiment, cells were seeded in 96-well plates. The next day cells were stimulated with TNF-α (1 ng/ml) purchased from Boehringer Mannheim in the presence or absence of compounds dissolved in dimethylsulphoxide (DMSO). To establish a dose curve for each compound, four concentrations in 2 fold increments were used. Cells were exposed to TNF-α and compounds for approximately 16 hours. The next day, cells were examined under microscope to score for visual signs of toxicity.
Media was discarded and the cells were washed once with Hanks buffered saline solution (HBSS)/phosphate buffered solution (PBS) 91:1). Primary mouse monoclonal antibody against VCAM-1 purchased from Southern Biotechnology Associates (0.25 μg/ml in HBSS/PBS+5% FBS) was added and incubated at 37° C. for 30 minutes. Cells were washed with HBSS/PBS three times, and secondary antibody horse radish peroxidase (HRP)-conjugated goat anti-mouse IgG purchased from Southern Biotechnology Associates (1:500 in HBSS/PBS+5% FBS) was added and incubated at 37° C. for 30 minutes. Cells were washed with HBSS/PBS four times and peroxidase substrate 3.3′,5,5′-tetramethyl-benzidine (TMB) was added and incubated in the dark at room temperature until there was adequate blue color development. The length of incubation time was typically 5-15 minutes. 2 N sulfuric acid was added to stop the color development and the data was collected by reading the absorbance at O.D. 450 nm. The result was expressed as the percentage of control sample (cells stimulated by TNF without any compound).

15-LOX-2 = assay: 15-Lipoxygenase Form-2 assay: immunoblot of TNF-α and IL-4 co-induced 15-LOX-2 expression in NHBE cells; format: cell-based; conditions: Homo sapiens, TNF-α 10 ng/ml + IL-4 20 ng/ml, 16-20 hours
Method: The 15-Lipoxygenase Form-2 (15-LOX-2) Assay is an immunoblot assay to measure tumor necrosis factor alpha (TNF-α) and interleukin-4 (IL-4) co-induced expression of 15-LOX-2 in Normal Human Epithelial Cells.
Normal human bronchial epithelial cells (NHBE) were purchased from Clonetics. They were cultured in BEGM (Clonetics) media without retinoic acid. In a typical experiment, the cells were seeded in 24-well plates. Media was changed to BEGM without retinoic acid (RA) and hydrocortisone (HC) 24 hour before dosing. Cells were then exposed to TNF-α (10 ng/ml) and IL-4 (20 ng/ml) purchased from Boehringer Mannheim in the absence or presence of compounds in fresh BEGM without RA and HC for 16-20 hours at 37° C. To establish a dose curve for each compound, three concentrations in 2 fold increments were used. All compounds were dissolved in DMSO and the final concentration of DMSO was 0.2%.
Cells were washed with cold 1×PBS three times and then lysed by 100 μl of Tris-Glycine SDS sample buffer (NOVEX). Lysates were fractionated by 4-20% gradient SDS-PAGE (NOVEX), transferred onto nitrocellulose filters (MSI) and incubated with the filters in blocking buffer (5% Blotto in 1×Tris buffered saline (TBS)+0.05% Tween 20) for 1 hour with gentle shaking. […]

[2] = tested on: DLD-1 colorectal carcinoma cells; assay: Anti-proliferative effect on DLD-1 cells (CellTiter96); format: cell-based; conditions: Homo sapiens, read-out: proliferation, percent of control; for activity at 1 µM: NDE 1 μM; for activity at 10 µM: NDE 10 μM; for activity at 100 µM: NDE 100 μM
Method: as §1, §2, §3, §4

SMILES: COC(=O)CCCSC(=S)NCC1CCCO1 (centres unmarked) [NDE, 4-(tetrahydrofuran-2-ylmethylthiocarbamoylsulfanyl)-butyric acid methyl ester]
- activity at 1 µM ([1]; 24 HOURS): 138 ± 24.2%
- activity at 1 µM ([1]; 48 HOURS): 105 ± 7.42%
- activity at 1 µM ([1]; 72 HOURS): 127 ± 16.4%
- activity at 10 µM ([1]; 24 HOURS): 93.4 ± 15.9%
- activity at 10 µM ([1]; 48 HOURS): 70.5 ± 8.42%
- activity at 10 µM ([1]; 72 HOURS): 59.2 ± 4.1%
- activity at 100 µM ([1]; 24 HOURS): 60 ± 10.8%
- activity at 100 µM ([1]; 48 HOURS): 26.3 ± 8.64%
- activity at 100 µM ([1]; 72 HOURS): 13.6 ± 1.31%
- IC50 (VCAM-1): 1.5 µM
- IC50 (15-LOX-2): 4.5 µM
- activity at 1 µM ([2]; 24 HOURS): 116 ± 3.72%
- activity at 1 µM ([2]; 48 HOURS): 107 ± 7.55%
- activity at 1 µM ([2]; 72 HOURS): 133 ± 10.3%
- activity at 10 µM ([2]; 24 HOURS): 97.1 ± 1.79%
- activity at 10 µM ([2]; 48 HOURS): 104 ± 13.3%
- activity at 10 µM ([2]; 72 HOURS): 142 ± 14.9%
- activity at 100 µM ([2]; 24 HOURS): 53.8 ± 5.28%
- activity at 100 µM ([2]; 48 HOURS): 39.8 ± 6.27%
- activity at 100 µM ([2]; 72 HOURS): 0.27 ± 0.27%
